Patent US20060178342A1, “Hyaluronan as a cytotoxic agent, drug pre-sensitizer and chemo-sensitizer in the treatment of disease” (priority 2001, published 2006)

Tests used:
[1] = tested on: MDA-MB-435; test: Breast cancer cell count assay (Coulter counter), HA ± adriamycin; format: cell-based, human
Protocol: Cell lines MDA-MB-468, MDA-MB-435 and MDA-MB-231 were routinely grown and subcultured as a monolayer in 175 cm^2 culture flasks in Leibovitz L-15 Medium supplemented with 10% Foetal calf serum (FCS) and antibiotic/antimycotic reagents at 37° C. in humidity controlled incubator with 100% (v/v) air.
For the tests, MDA MB-468, MDA MB-231 and MDA MB-435 cell line were grown in 90% Leibovitz L-15 medium supplemented with 10% FCS. When confluent the cultures were washed 1× in HBSS and trypsinised in 0.25% trypsin/0.05% EDTA. The cell suspensions were counted with an automated cell counter (ZM-2 Coulter Counter) by adding 15 mL saline+0.2 ml of cell suspension. • Cells were resuspended to a number of:
The cells were plated into 48-well plates (1 cm^2 surface area) by adding 1 ml of cell suspension per well. • Cells were allowed to attach for 24 h, before the media was removed, monolayers washed. The test media was; growth media containing 0-1 μM adriamycin or 5-fluorouracil with or without the addition of 0-1 μM of HA (modal Mw 750,000).
The cells were exposed to the several combinations of HA and drugs for different times and at different concentrations (Table 3).
After the incubation and growth periods the cell monolayers were washed with HBSS and trypsinised in 0.25% trypsin/0.05% EDTA. The cell suspensions were counted with an automated cell counter (ZM-2 Coulter Counter) by adding 15 mL saline+0.2 ml of cell suspension. Results were expressed as % of no drug control which was calculated as: […]

[2] = tested on: Human LIM1215 colon cancer xenografts; test: 14-week efficacy study, irinotecan ± HA in colon cancer xenografts; format: in vivo, mouse; settings: 13.3, 26.6 or 150 mg/kg HA, IV bolus Day 1 of 14 × q7 D
Source text: Human LIM1215 colon cancer xenografts were inoculated into the mammary fat pad of athymic […] nude mice. Mice were randomly distributed into eight treatment groups (8 mice per group).
The treatment regime comprised of injections on Day 1 of a 7-day cycle for duration of fourteen weeks. Primary tumor volume, animal body mass, energy levels and food consumption were monitored three times weekly.
Athymic CBA/WEHI nude female mice (Walter and Eliza Hall Research Institute, Melbourne, Australia), 6 to 8 weeks old, were maintained under specific pathogen-free conditions, with sterilized food and water available ad libitum. Each mouse received one injection containing 1×10^7 cells in 50-100 μl. […]
Any animals with a tumor volume expressed as a percentage of body weight outside 0.25±0.10 (mean±1 SD) were excluded from data analysis. […]
The experimental end-point for each animal occurred either when the animal had to be euthanized due to a high degree of disease progression or when the 14-week study had been completed. The animals were monitored three times weekly and the following criteria were established to determine whether an animal had reached the experimental end point: tumour mass is greater than 10% of the animals total body mass; the animal is metabolically stressed (i.e. losing weight); or the animal is immobilized.

[3] = tested on: HCT-116; test: Effect of HA on cell proliferation; format: cell-based, human; settings: 3 days constant exposure, 100 nM
Protocol: (§1) The effect of HA on the proliferation of human breast and colon cancer cell lines was determined according to the methods set forth in the Table 11.

[4] = tested on: HT-29; test: Effect of HA on cell proliferation; format: cell-based, human; settings: 3 days constant exposure, 100 nM
Protocol: as §1

[5] = tested on: LIM 1215; test: Effect of HA on cell proliferation; format: cell-based, human; settings: 3 days constant exposure, 100 nM
Protocol: as §1

[6] = tested on: LIM 2099; test: Effect of HA on cell proliferation; format: cell-based, human; settings: 3 days constant exposure, 100 nM
Protocol: as §1

[7] = tested on: MDA MB 231; test: Effect of HA on cell proliferation; format: cell-based, human
Protocol: as §1

[8] = tested on: MDA MB 435; test: Effect of HA on cell proliferation; format: cell-based, human
Protocol: as §1

[9] = tested on: MDA MB 468; test: Effect of HA on cell proliferation; format: cell-based, human
Protocol: as §1

[10] = tested on: SK-CO-1; test: Effect of HA on cell proliferation; format: cell-based, human; settings: 3 days constant exposure, 100 nM
Protocol: as §1

[11] = tested on: SW1222; test: Effect of HA on cell proliferation; format: cell-based, human; settings: 3 days constant exposure, 100 nM
Protocol: as §1

[12] = tested on: SW620; test: Effect of HA on cell proliferation; format: cell-based, human; settings: 3 days constant exposure, 100 nM
Protocol: as §1

[13] = tested on: ZR-75-1; test: Effect of HA on cell proliferation; format: cell-based, human; settings: 3 days constant exposure
Protocol: as §1

[14] = 30 min HA followed by growth for 3 days, 100 nM
[15] = 3 days constant exposure, 100 nM
[16] = 3 days constant exposure, 500 nM
[17] = 3 days constant exposure, 10 μM
[18] = 24 H HA followed by growth for 3 days, 100 nM

With hyaluronan [HA] the “Cytotoxic effect of HA, change in cell number” value (shortened to “Cytotoxic effect of HA, change”) ([1]; HA exposure 30 min 100 nM) was −12%, the “Cytotoxic effect of HA, change” value ([1]; HA exposure 30 min 500 nM) was 0 and the “Cytotoxic effect of HA, change” value ([1]; HA exposure 1 h 100 nM) was −4%. The “Cytotoxic effect of HA, change” value ([1]; HA exposure 24 h 100 nM) was −12%, the “Cytotoxic effect of HA, change” value ([1]; HA exposure 3 days 100 nM) was −22% and the “disease course with HA alone” value [2] was “progressive disease”. For the same substance, the “Effect of HA on cell proliferation (mean ± standard deviation)” value (from here on “Effect of HA … (mean ± standard deviation)”) [3] was 92 ± 0 (n = 8) % of untreated control, the “Effect of HA … (mean ± standard deviation)” value [4] was 82 ± 14 (n = 8) % of untreated control and the “Effect of HA … (mean ± standard deviation)” value [5] was 89 ± 5 (n = 8) % of untreated control. The “Effect of HA … (mean ± standard deviation)” value [6] was 105 ± 2 (n = 16) % of untreated control, the “Effect of HA … (mean ± standard deviation)” value [7, 14] was 86 ± 3 (n = 8) % of untreated control and the “Effect of HA … (mean ± standard deviation)” value [7, 15] was 106 ± 11 (n = 20) % of untreated control. For the same substance, the “Effect of HA … (mean ± standard deviation)” value [7, 16] was 100 ± 1 (n = 8) % of untreated control, the “Effect of HA … (mean ± standard deviation)” value [7, 17] was 101 ± 5 (n = 8) % of untreated control and the “Effect of HA … (mean ± standard deviation)” value [8, 18] was 111 ± 6 (n = 8) % of untreated control. For the same substance, the “Effect of HA … (mean ± standard deviation)” value [8, 14] was 86 ± 6 (n = 12) % of untreated control, the “Effect of HA … (mean ± standard deviation)” value [8, 15] was 85 ± 17 (n = 16) % of untreated control and the “Effect of HA … (mean ± standard deviation)” value [8, 16] was 55 ± 6 (n = 8) % of untreated control. The “Effect of HA … (mean ± standard deviation)” value [8, 17] was 101 ± 1(n = 8) % of untreated control, the “Effect of HA … (mean ± standard deviation)” value [9, 18] was 84 ± 1 (n = 4) % of untreated control and the “Effect of HA … (mean ± standard deviation)” value [9, 14] was 97 ± 15 (n = 12) % of untreated control. For the same substance, the “Effect of HA … (mean ± standard deviation)” value [9, 15] was 99 ± 6 (n = 20) % of untreated control, the “Effect of HA … (mean ± standard deviation)” value [9, 16] was 95 ± 3 (n = 8) % of untreated control and the “Effect of HA … (mean ± standard deviation)” value [9, 17] was 99 ± 6 (n = 20) % of untreated control. The “Effect of HA … (mean ± standard deviation)” value [10] was 95 ± 3 (n = 8) % of untreated control, the “Effect of HA … (mean ± standard deviation)” value [11] was 99 ± 1 (n = 8) % of untreated control and the “Effect of HA … (mean ± standard deviation)” value [12] was 97 ± 1 (n = 8) % of untreated control. The “Effect of HA … (mean ± standard deviation)” value ([13]; 100 nM) was 103 ± 4 (n = 20) % of untreated control, the “Effect of HA … (mean ± standard deviation)” value ([13]; 500 nM) was 102 ± 1 (n = 8) % of untreated control and the “Effect of HA … (mean ± standard deviation)” value ([13]; 10 μM) was 100 ± 3 (n = 8) % of untreated control.
